Source: PubChem BioAssay AID248 (DTP/NCI, 2004)
Where “and” joins values, the source holds several entries; their conditions need not be identical. Equal values may be shown once. Inconclusive results and toxic doses are left out. Rule as the data show it: active = T/C of 150% or more; inactive = T/C below 125%. Square brackets hold non-standard residues; d marks the D form. Peptide text beside a SMILES is read from it. ξ: configuration not given here. ξD = NC(CC(=O)O)C(=O)O

Test system: L1210 leukemia ip in BDF1 mice, survival T/C
Assay: NCI In Vivo Anticancer Drug Screen. Data for tumor model L1210 Leukemia (intraperitoneal) in B6D2F1 (BDF1) mice
Details: endpoint: mean survival time, higher = longer survival
Outline: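 Read-out is survival time, reported as the treated-group measurement over the vehicle-control measurement.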

[1] = dose: 100.0 mg/kg/injection, schedule: Q01DX001 (ip), vehicle: saline
[2] = dose: 200.0 mg/kg/injection, schedule: Q01DX001 (ip), vehicle: saline
[3] = dose: 400.0 mg/kg/injection, schedule: Q01DX001 (ip), vehicle: saline
[4] = dose: 100.0 mg/kg/injection, schedule: Q01DX009 (ip), vehicle: saline with Tween-80
[5] = dose: 200.0 mg/kg/injection, schedule: Q01DX009 (ip), vehicle: saline with Tween-80
[6] = dose: 400.0 mg/kg/injection, schedule: Q01DX009 (ip), vehicle: saline with Tween-80
[7] = dose: 50.0 mg/kg/injection, schedule: Q01DX009 (ip), vehicle: saline with Tween-80
[8] = dose: 100.0 mg/kg/injection, schedule: Q01DX001 (ip), vehicle: carboxymethylcellulose (CMC)
[9] = dose: 200.0 mg/kg/injection, schedule: Q01DX001 (ip), vehicle: carboxymethylcellulose (CMC)
[10] = dose: 400.0 mg/kg/injection, schedule: Q01DX001 (ip), vehicle: carboxymethylcellulose (CMC)

Measured: T/C

COc1ccccc1C1CCCCCCC1OS(=O)(=O)c1ccc(C)cc1 (stereo not given)
inactive: dose: 18.75 mg/kg/injection, schedule: Q01DX009 (ip), vehicle: saline 97 % of control | dose: 37.5 mg/kg/injection, schedule: Q01DX009 (ip), vehicle: saline 95 % of control | dose: 75.0 mg/kg/injection, schedule: Q01DX001 (ip), vehicle: acetone 89 % of control | dose: 75.0 mg/kg/injection, schedule: Q01DX001 (ip), vehicle: saline 90 % of control | dose: 75.0 mg/kg/injection, schedule: Q01DX009 (ip), vehicle: saline 90 % of control | dose: 75.0 mg/kg/injection, schedule: Q04DX003 (ip), vehicle: saline 88 % of control | dose: 112.0 mg/kg/injection, schedule: Q01DX009 (ip), vehicle: saline 103 % of control | dose: 150.0 mg/kg/injection, schedule: Q01DX001 (ip), vehicle: saline 93 % of control | dose: 150.0 mg/kg/injection, schedule: Q04DX003 (ip), vehicle: saline 92 % of control | dose: 170.0 mg/kg/injection, schedule: Q01DX009 (ip), vehicle: saline 96 % of control | dose: 255.0 mg/kg/injection, schedule: Q01DX009 (ip), vehicle: saline 100 % of control | dose: 300.0 mg/kg/injection, schedule: Q01DX001 (ip), vehicle: acetone 89 % of control | dose: 300.0 mg/kg/injection, schedule: Q01DX001 (ip), vehicle: saline 92 % of control

O=C(CCCC(=O)N/N=C/c1cc(Cl)cc(Cl)c1O)N/N=C\c1cc(Cl)cc(Cl)c1O
inactive: dose: 50.0 mg/kg/injection, schedule: Q01DX001 (ip), vehicle: saline 100 % of control | [1] 97 % of control | [2] 100 % of control | [3] 97 % of control

CC(Br)C(=O)NC(C)C(=O)O (stereo not given)
inactive: [4] 89 % of control | [5] 86 % of control | [6] 91 % of control

CC(C)CCC(C)c1ccncc1 (stereo not given)
inactive: [1] 103 % of control | [2] 97 % of control | [3] 100 % of control

NCC(=O)NC(CC(=O)O)C(=O)O (stereo not given) (H-Gly-[ξD]-OH)
inactive: [1] 97 % of control | [2] 104 % of control | [3] 97 % of control

CCOP(=S)(NN=C1CCC(C(C)(C)C)CC1)OCC (stereo not given)
inactive: [1] 103 % of control | [2] 97 % of control

O=C(Nc1ccc(Cl)cc1Cl)Oc1ccc(F)cc1
inactive: [7] 94 % of control | [4] 94 % of control | [5] 102 % of control

CCOc1ccc(Nc2nc(=O)[nH]c3ccccc23)cc1CN(CCCl)CCCl
inactive: dose: 25.0 mg/kg/injection, schedule: Q04DX002 (ip), vehicle: saline 104 % of control | dose: 50.0 mg/kg/injection, schedule: Q04DX002 (ip), vehicle: saline 100 % of control | dose: 100.0 mg/kg/injection, schedule: Q04DX002 (ip), vehicle: saline 111 % of control | dose: 200.0 mg/kg/injection, schedule: Q04DX002 (ip), vehicle: saline 95 % of control and 111 % of control | dose: 400.0 mg/kg/injection, schedule: Q04DX002 (ip), vehicle: saline 95 % of control

COC(OC)C1OC(c2ccccc2)OC2COC(c3ccccc3)OC21 (stereo not given)
inactive: dose: 12.5 mg/kg/injection, schedule: Q01DX009 (ip), vehicle: saline with Tween-80 92 % of control | dose: 12.5 mg/kg/injection, schedule: Q04DX003 (ip), vehicle: saline with Tween-80 93 % of control | dose: 25.0 mg/kg/injection, schedule: Q01DX009 (ip), vehicle: saline with Tween-80 92 % of control | dose: 25.0 mg/kg/injection, schedule: Q04DX003 (ip), vehicle: saline with Tween-80 92 % of control | [7] 92 % of control | dose: 50.0 mg/kg/injection, schedule: Q04DX003 (ip), vehicle: saline with Tween-80 92 % of control

CC(=O)NNC(=O)C1CCCCN1 (stereo not given)
inactive: dose: 100.0 mg/kg/injection, schedule: Q01DX001 (ip), vehicle: water 101 % of control | dose: 200.0 mg/kg/injection, schedule: Q01DX001 (ip), vehicle: water 100 % of control | dose: 400.0 mg/kg/injection, schedule: Q01DX001 (ip), vehicle: water 103 % of control

O=c1[nH]c(=S)c2c3c(sc2[nH]1)CCCC3
inactive: dose: 100.0 mg/kg/injection, schedule: Q04DX003 (ip), vehicle: saline sonified 95 % of control | dose: 200.0 mg/kg/injection, schedule: Q04DX003 (ip), vehicle: saline sonified 97 % of control | dose: 400.0 mg/kg/injection, schedule: Q04DX003 (ip), vehicle: saline sonified 93 % of control

S=C(Nc1ccccc1)NC1CCCCCC1
inactive: [7] 98 % of control and 92 % of control | [4] 94 % of control | dose: 100.0 mg/kg/injection, schedule: Q04DX003 (ip), vehicle: saline 97 % of control | [5] 90 % of control | dose: 200.0 mg/kg/injection, schedule: Q04DX003 (ip), vehicle: saline 94 % of control

CCCNC(=O)Nc1cc(C(F)(F)F)ccc1Cl
inactive: [4] 98 % of control | dose: 100.0 mg/kg/injection, schedule: Q04DX003 (ip), vehicle: saline with Tween-80 97 % of control | [5] 88 % of control | dose: 200.0 mg/kg/injection, schedule: Q04DX003 (ip), vehicle: saline with Tween-80 103 % of control | [6] 87 % of control | dose: 400.0 mg/kg/injection, schedule: Q04DX003 (ip), vehicle: saline with Tween-80 108 % of control

NNC(=O)CNc1ccccc1
inactive: dose: 50.0 mg/kg/injection, schedule: Q01DX001 (ip), vehicle: Klucel (hydroxypropylcellulose) (HPC) 100 % of control | dose: 100.0 mg/kg/injection, schedule: Q01DX001 (ip), vehicle: Klucel (hydroxypropylcellulose) (HPC) 110 % of control | dose: 200.0 mg/kg/injection, schedule: Q01DX001 (ip), vehicle: Klucel (hydroxypropylcellulose) (HPC) 117 % of control

Cc1cc(NC(=O)Nc2cc(Cl)ccc2C)no1
inactive: dose: 12.5 mg/kg/injection, schedule: Q01DX009 (ip), vehicle: Klucel (hydroxypropylcellulose) (HPC) 95 % of control | dose: 25.0 mg/kg/injection, schedule: Q01DX009 (ip), vehicle: Klucel (hydroxypropylcellulose) (HPC) 106 % of control | dose: 50.0 mg/kg/injection, schedule: Q01DX009 (ip), vehicle: Klucel (hydroxypropylcellulose) (HPC) 98 % of control

CC1(C)CCC(C)(C)c2cc(Br)ccc21
inactive: [8] 103 % of control | [9] 95 % of control | [10] 95 % of control

CCCCCN(CCCCC)C(=O)CCCC
inactive: [8] 115 % of control | dose: 100.0 mg/kg/injection, schedule: Q01DX009 (ip), vehicle: carboxymethylcellulose (CMC) 93 % of control and 97 % of control | dose: 100.0 mg/kg/injection, schedule: Q04DX002 (ip), vehicle: carboxymethylcellulose (CMC) 101 % of control and 105 % of control | dose: 100.0 mg/kg/injection, schedule: Q04DX003 (ip), vehicle: carboxymethylcellulose (CMC) 97 % of control | [9] 101 % of control | dose: 200.0 mg/kg/injection, schedule: Q01DX009 (ip), vehicle: carboxymethylcellulose (CMC) 100 % of control and 102 % of control | dose: 200.0 mg/kg/injection, schedule: Q04DX002 (ip), vehicle: carboxymethylcellulose (CMC) 98 % of control and 103 % of control | dose: 200.0 mg/kg/injection, schedule: Q04DX003 (ip), vehicle: carboxymethylcellulose (CMC) 95 % of control | [10] 100 % of control | dose: 400.0 mg/kg/injection, schedule: Q01DX009 (ip), vehicle: carboxymethylcellulose (CMC) 97 % of control and 86 % of control | dose: 400.0 mg/kg/injection, schedule: Q04DX002 (ip), vehicle: carboxymethylcellulose (CMC) 98 % of control and 87 % of control | dose: 400.0 mg/kg/injection, schedule: Q04DX003 (ip), vehicle: carboxymethylcellulose (CMC) 100 % of control
